# From US20240043394A1, “PROTEASOME ENHANCERS AND USES THEREOF” (Board of Trustees of Michigan State University, priority 2020, published 2024)
# Assays:
# [1] = target: T1, purified human 20S proteasome (Homo sapiens, UniProt P25787+P60900); experiment: 20S proteasome small peptide assay, combination of all three fluorogenic substrates (CT-L/Casp-L/T-L); type: biochemical; parameters: key to 20S proteasome activation, classed in words: compounds that exhibit a maximum fold enhancement of <2 fold (i.e. <200%) at a concentration >20 μM were considered inactive; details: for AC200 CT-L/Casp-L/T-L: concentration needed to double (200%) the rate of substrate degradation vs vehicle; for AC200 CT-L/Casp-L/T-L / Max Fold CT-L/Casp-L/T-L: three probes combined; for Max Fold CT-L/Casp-L/T-L: maximum fold rate increase vs vehicle control; for 20S proteasome activation, classed in words: concentrations tested 1.25 μM to 80 μM
# T1 construct: purchased Boston Biochem or Life Sensors E-360 or ps020
# Protocol: (§1) In vitro testing, 20S activation: The 20S proteasome activity of the compounds was assessed by utilizing the standard fluorogenic 7-amino-methylcoumarin (AMC) conjugated small peptide substrates that correspond to each of the catalytic sites in the 20S proteasome: chymotryptic-like site (Suc-LLVY-AMC), caspase-like site (Z-LLE-AMC), and trypsin-like site (Boc-LRR-AMC). When the small peptide substrate is degraded by the 20S proteasome, the AMC fluorophore is released and quantified to measure the rate of proteolytic cleavage. The 20S proteasome activity of the small molecules was evaluated at varying concentrations to determine the concentration at which the rate of proteolysis was doubled (i.e. the concentration needed to induce 200% activity) compared to the vehicle control (hereafter named as AC200). Concentrations ranging from 1.25 μM to 80 μM of each of compound were added to wells that contained 0.5 nM of purified human proteasome.
# (§2) The overall enhancement of the rate of proteolysis of the 20S proteasome by a small molecule was first evaluated by adding a combination of all three peptide substrates to the treated sample. The combination of all three substrates represents a more accurate measurement of proteolytic activity of the proteasome because the catalytic sites housed in the β ring of the 20S proteasome communicate through allosteric interactions. For example, when a protein substrate encounters the chymotryptic-like site, a conformational change will occur activating the caspase-like site.^61 The individual contribution of each of the three catalytic sites was subsequently evaluated by adding only the corresponding peptide probes to gain insight into the contribution of each site on the overall enhanced proteolytic activity.
# (§3) The fluorescent output, due to release of the AMC fluorophore, was then converted to the fold increase compared to a vehicle control sample, and the AC200 was calculated. […] (Table 1).
# (§4) AC200 represents the concentration needed to double (e.g., 200%) the rate of substrate degradation compared to vehicle control. Max fold is the maximum fold rate increase compared to vehicle control.
# (§5) 20S Proteasome Small Peptide Assay: Activity assays were carried out in a black flat/clear bottom 96 well plate with a […] volume. Concentrations of the potential activators, varying from 80 μM to 1.25 μM, were added to the well that contained 1 nM 20S proteasome purchased from either Boston Biochem (catalog number E-360) or Life Sensors (catalog number ps020), in a […] buffer at a pH of 7.8. This solution was left to incubate at 37° C. for 15 minutes. For the assay for the overall proteasome activity, 13.33 μM of each small peptide substrate is added. The 96 well plate is then placed into a plate reader (SpectraMax M5e spectrometer) and the plate reader will take a fluorescent reading every 5 minutes for an hour at 37° C. The enzymatic activity of the 20S proteasome is quantified using the fluorescent output at 380-460 nm, which is converted to max fold increase over the untreated sample. The activity of the individual catalytic assays is identical to the assay that assesses the overall activity of the 20S proteasome except only one small peptide substrate is added. To evaluate the activity of the CT-L and the Casp-L sites, 10 μM of the Suc-LLVY-AMC (Boston Biochem S-280) and Z-LLE-AMC (Boston Biochem S-230) were added, respectively. To evaluate the activity of the T-L site, 20 μM of the Boc-LRR-AMC (Boston Biochem S-300) is added.
# [2] = target: T2, purified human 20S proteasome, T-L site (Homo sapiens, UniProt P25787+P60900); experiment: 20S proteasome small peptide assay, Boc-LRR-AMC trypsin-like probe; type: biochemical; details: for AC200 T-L site: concentration needed to double rate vs vehicle; for Max Fold T-L site: maximum fold rate increase vs vehicle
# T2 construct: purchased Boston Biochem or Life Sensors E-360 or ps020
# Protocol: as §1, §2, §3, §4, §5
# [3] = target: T3, purified human 20S proteasome, Casp-L site (Homo sapiens, UniProt P25787+P60900); experiment: 20S proteasome small peptide assay, Z-LLE-AMC caspase-like probe; type: biochemical; details: for AC200 Casp-L site: concentration needed to double rate vs vehicle; for Max Fold Casp-L site: maximum fold rate increase vs vehicle
# T3 construct: purchased Boston Biochem or Life Sensors E-360 or ps020
# Protocol: as §1, §2, §3, §4, §5
# [4] = target: T4, purified human 20S proteasome, CT-L site (Homo sapiens, UniProt P25787+P60900); experiment: 20S proteasome small peptide assay, Suc-LLVY-AMC chymotryptic-like probe; type: biochemical; details: for AC200 CT-L site: concentration needed to double rate vs vehicle; for Max Fold CT-L site: maximum fold rate increase vs vehicle
# T4 construct: purchased Boston Biochem or Life Sensors E-360 or ps020
# Protocol: as §1, §2, §3, §4, §5
# [5] = test system: A53T mutant α-synuclein in Hek-293T cells; experiment: In cell degradation of A53T α-synuclein (Western blot); type: cell-based; details: 10 μM, 10 hours
# Protocol: Error bars denote standard deviation. One-way ANOVA statistical analysis was used to determine statistical significance (ns=not significant, *p<0.05, **p<0.01, ***p<0.001, ****p<0.0001) (FIG. 4B).
# Cellular efficacy: The A53T mutation of α-synuclein has been linked to early on-set familial Parkinson's disease and appears to oligomerize faster than the wild-type protein. […] Hek-293T cells were transiently transfected with an inducible Tet-One A53T mutant α-synuclein. The cells were treated with 100 ng/mL of doxycycline to induce the production of the A53T mutant. […] The cells were then lysed and the remaining A53T α-synuclein was visualized and quantified via Western Blotting (FIG. 4, n=4).
# In cell degradation of A53T α-synuclein: In a 6 well plate, Hek293T cells were grown to 80% confluency and then transfected using Xfect biopolymer transfection system with the Tet-One A53T α-synuclein plasmid. 24 hours post transfection, 100 ng/mL of doxycycline was added to induce A53T α-synuclein expression. After 24 hours of protein induction, media was removed that contained the doxycycline and was washed with PBS. Media with the desired drug concentration or DMSO was added and treated for 10 hours. After the cells were treated with the test compounds or DMSO, the cells were scraped and the pelleted (300 g for 5 minutes). The supernatant was taken off and the cell pellet was washed with ice cold PBS and then lysed with RIPA buffer with added protease inhibitors. The cell lysate was incubated for 20 minutes on ice. The lysate was centrifuged for 15 minutes at 500 g and then the supernatant was collected. Concentrated SDS loading buffer was added and the samples were boiled for 10 minutes. The samples were then resolved on a 4-20% Tris-glycine SDS-PAGE gel and immunoblotted with mouse monoclonal anti α-synuclein IgG (1:2000) and anti-mouse HRP-linked IgG (1:2000). Blots were developed with ECL Westem reagent and imaged with an Azure Biosystems 3000 imager.
Structure (SMILES),AC200 CT-L/Casp-L/T-L [1],Max Fold CT-L/Casp-L/T-L [1],AC200 T-L site [2],Max Fold T-L site [2],AC200 Casp-L site [3],AC200 CT-L site [4],Max Fold CT-L site [4],"20S proteasome activation, classed in words [1]",Max Fold Casp-L site [3],"decrease of A53T mutant α-synuclein, in words [5]","potency relative to compound 7 (times less potent) ([1]; 20S proteasome activation, compared with electron poor counterpart 7)",decrease of accumulated A53T α-synuclein ([5]; normalized to vehicle)
"Clc1ccc2c(c1)N(Cc1ccccc1)c1ccccc1S2 [Compound 1, 10-Benzyl-2-chloro-10H-phenothiazine]",1.5 µM,2 fold,3.1 µM,2 fold,>80 µM,2.8 µM,3 fold,–,–,–,–,–
"CC(C)(C)OC(=O)c1ccc(CN2c3ccccc3Sc3ccc(Cl)cc32)cc1 [Compound 3, Tert-butyl 4-((2-chloro-10H-phenothiazin-10-yl)methyl)benzoate]",>80 µM,–,>80 µM,–,>80 µM,>80 µM,–,inactive,–,–,–,–
"COc1cccc(CN2c3ccccc3Sc3ccc(Cl)cc32)c1 [Compound 4, 2-Chloro-10-(3-methoxybenzyl)-10H-phenothiazine]",1.5 µM,4 fold,5.4 µM,2 fold,1.3 µM,>80 µM,–,–,4 fold,–,–,–
"COC(=O)c1cccc(CN2c3ccccc3Sc3ccc(Cl)cc32)c1 [Compound 5, Methyl 3-((2-chloro-10H-phenothiazin-10-yl)methyl)benzoate]",2.4 µM,6 fold,1.9 µM,8 fold,9.7 µM,2.4 µM,6 fold,–,4 fold,–,–,–
"CC(=O)Oc1ccc(CN2c3ccccc3Sc3ccc(Cl)cc32)cc1 [Compound 6, 4-((2-Chloro-10H-phenothiazin-10-yl)methyl)phenyl acetate]",>80 µM,–,>80 µM,–,>80 µM,>80 µM,–,inactive,–,–,–,–
"O=[N+]([O-])c1cccc(CN2c3ccccc3Sc3ccc(Cl)cc32)c1 [Compound 7, 2-Chloro-10-(3-nitrobenzyl)-10H-phenothiazine]",1.1 µM,8 fold,1.6 µM,8 fold,1.2 µM,1.1 µM,9 fold,–,12 fold,–,–,–
"Oc1ccc(CN2c3ccccc3Sc3ccc(Cl)cc32)cc1 [Compound 8, 4-((2-Chloro-10H-phenothiazin-10-yl)methyl)phenol]",>80 µM,–,>80 µM,–,>80 µM,>80 µM,–,inactive,–,no decrease,–,–
"Nc1cccc(CN2c3ccccc3Sc3ccc(Cl)cc32)c1 [Compound 9, 3-((2-Chloro-10H-phenothiazin-10-yl)methyl)aniline]",3.6 µM,8 fold,9.2 µM,10 fold,3.8 µM,6.5 µM,9 fold,–,10 fold,–,3 ×,–
"N#CCCCCN1c2ccccc2Sc2ccc(Cl)cc21 [Compound 10, 5-(2-chloro-10H-phenothiazin-10-yl)pentanenitrile]",>80 µM,–,>80 µM,–,>80 µM,>80 µM,–,inactive,–,–,–,–
"NC(=O)CCCCN1c2ccccc2Sc2ccc(Cl)cc21 [Compound 11, 5-(2-Chloro-10H-phenothiazin-10-yl)pentanamide]",>80 µM,–,>80 µM,–,>80 µM,>80 µM,–,inactive,–,–,–,–
"NC(=O)C=CN1c2ccccc2Sc2ccc(Cl)cc21 [Compound 15, 3-(2-chloro-10H-phenothiazin-10-yl)propenamide]",>80 µM,–,>80 µM,–,>80 µM,>80 µM,–,inactive,–,–,–,–
"CN(C)C(=O)CCN1c2ccccc2Sc2ccc(Cl)cc21 [Compound 16, 3-(2-chloro-10H-phenothiazin-10-yl)-N,N-dimethylpropanamide]",>80 µM,–,>80 µM,–,>80 µM,>80 µM,–,inactive,–,–,–,–
"O=C(C=CN1c2ccccc2Sc2ccc(Cl)cc21)Nc1ccccc1 [Compound 17, 3-(2-chloro-10H-phenothiazin-10-yl)-N-phenylpropenamide]",40 µM,2.5 fold,80 µM,2 fold,>80 µM,>80 µM,–,–,–,–,–,–
"CN(C(=O)CCN1c2ccccc2Sc2ccc(Cl)cc21)c1ccc(F)cc1 [Compound 18, 3-(2-chloro-10H-phenothiazin-10-yl)-N-(4-fluorophenyl)-N-methylpropanamide]",–,3 fold,–,–,–,–,–,–,–,–,–,–
"CCOC(=O)[C@]1(c2ccccc2)N=C(c2ccc(OC)cc2)N(Cc2ccccc2)[C@@H]1c1ccc(NCc2ccccc2)cc1 [TCH-165, reference compound]",–,–,–,–,–,–,–,–,–,–,–,40%
